{
  "source": "paper PMC11601558",
  "about": "“SLC6A19 inhibition facilitates urinary neutral amino acid excretion and lowers plasma phenylalanine” (JCI Insight, 2024)",
  "key": {"human SLC1A5": {"tested_on": "T1, human SLC1A5", "T1 construct": "V5; expressed in transfected cells; host or cells: Flp-In T-Rex 293 cells (Thermo Fisher), tetracycline-induced", "experiment": "SLC1A5 glutamine transport assay", "assay_type": "cell-based", "conditions": "for SLC1A5 transport (Fig S2 curve point): technical replicates", "experimental": "(§1) Supplementary Materials and Methods\n(§2) Flp-In T-Rex 293 cells (Thermo Fisher) were engineered to induciblyexpress either V5-tagged human SLC1A5, SLC6A8 or SLC7A5 co-expressed with myc-DDK-tagged SLC3A2. Cells expressing SLC 1A5 or SLC6A8 were maintained in either DMEM or DMEM/F12 media supplemented with 10% FBS, 100 U/mL penicillin, 100 μg/mL streptomycin, 200 μg/mL hygromycin, and 10 μg/mL blasticidin. For cells expressing SLC7A5/SLC3A2, the media was additionally supplemented with 300 μg/mL geneticin. All cell lines were maintained at 37°C and 5% CO2. For transport experiments, all cell lines were plated in poly-D-lysine-coated 96-well plates at a density of 35,000 cells/well. One day after plating, expression of SLC1A5, SLC6A8 or SLC7A5 was induced by adding tetracycline at a concentration of 1 μg/mL. Cells were induced for 24 h prior to transport assays.\nSLC1A5 glutamine transport assay\nFollowing a 24 h induction with tetracycline, cells were washed with LCIS before JNT -517 was added in 8-point concentration-response diluted in live cell imaging solution. D -serine was used as a positive control (32)at aconcentration of 40 mM and 0.5% DMSO was used as a negative control. Cells were incubated for 20 min at room temperature and then placed on ice for an additional 5 minutes. Then, a mixture of unlabeled L-glutamine (Millipore Sigma) spiked with 4.5 μCi/mL 2,3,4- 3H-labeled L-glutamine (American Radiolabeled Chemicals) was added at a final concentration of 100 μM. After a 5 min incubation on ice, cells were washed once with ice - […]\ncold LCIS and lysed in scintillation fluid (PerkinElmer). The uptake of radioactive substrate was measured on a Microbeta2 microplate counter (PerkinElmer). […]"}, "[1]": {"tested_on": "T2, SLC7A5 co-expressed with SLC3A2", "T2 construct": "V5; expressed in transfected cells; host or cells: Flp-In T-Rex 293 cells (Thermo Fisher), SLC7A5 tetracycline-induced", "experiment": "SLC7A5 isoleucine transport assay", "assay_type": "cell-based, human", "conditions": "for SLC7A5 transport (Fig S2 curve point): technical replicates", "experimental": "as §1\nas §2, with “assays. […]” for “assays.”\nSLC7A5 isoleucine transport assay\nFollowing a 24 h induction with tetracycline, cells were washed with sodium -free LCIS (20 mM HEPES, 140 mM choline chloride, 2.5 mM KCl, 1.8 mM CaCl2, 1 mM MgCl2, pH 7.4) before JNT-517 was added in 8-point concentration-response diluted in sodium-free LCIS. JPH203 (Selleckchem) was used as a positive control (34)at a concentration of 1.3 μM and DMSO was used as a negative control. Cells were incubated for 30 min at room temperature before a mixture of unlabeled L-isoleucine (Millipore Sigma) and 10 μCi/mL 4,5 -3H(N)-labeled L-isoleucine (American Radiolabeled Chemicals) was added at a concentration of 50 μM. After a 2 min incubation at room temperature, cells were washed once with sodium -free LCIS and lysed in scintillation fluid (PerkinElmer). The uptake of radioactive substrate was measured on a Microbeta2 microplate counter (PerkinElmer). […]"}},
  "note": "“And” between values parts separate entries of the source, which are not always exact repeats. Identical values can stand only once.",
  "data": [
    {"smiles": "NC(=O)N1CCC[C@@H](N(C(=O)NCc2ccc(OC(F)(F)F)cc2F)C2CC2)C1", "note": "[JNT-517]", "values": [
      {"measurement": "SLC1A5 transport (Fig S2 curve point)", "setting": "human SLC1A5; 0.0160037 uM", "value": "77.6 and 89.2"},
      {"measurement": "SLC1A5 transport (Fig S2 curve point)", "setting": "human SLC1A5; 0.048011 uM", "value": "105 and 120"},
      {"measurement": "SLC1A5 transport (Fig S2 curve point)", "setting": "human SLC1A5; 0.144033 uM", "value": "112 and 122"},
      {"measurement": "SLC1A5 transport (Fig S2 curve point)", "setting": "human SLC1A5; 0.432099 uM", "value": "125 and 131"},
      {"measurement": "SLC1A5 transport (Fig S2 curve point)", "setting": "human SLC1A5; 1.2963 uM", "value": "122 and 116"},
      {"measurement": "SLC1A5 transport (Fig S2 curve point)", "setting": "human SLC1A5; 3.88889 uM", "value": "125 and 121"},
      {"measurement": "SLC1A5 transport (Fig S2 curve point)", "setting": "human SLC1A5; 11.6667 uM", "value": "117 and 115"},
      {"measurement": "SLC1A5 transport (Fig S2 curve point)", "setting": "human SLC1A5; 35 uM", "value": "110 and 117"},
      {"measurement": "inhibition of SLC1A5", "setting": "human SLC1A5; concentrations up to 35 μM", "value": "did not inhibit"},
      {"measurement": "SLC7A5 transport (Fig S2 curve point)", "setting": "[1]; 0.0160037 uM", "value": "105 and 96.7"},
      {"measurement": "SLC7A5 transport (Fig S2 curve point)", "setting": "[1]; 0.048011 uM", "value": "106 and 104"},
      {"measurement": "SLC7A5 transport (Fig S2 curve point)", "setting": "[1]; 0.144033 uM", "value": "99.2 and 100"},
      {"measurement": "SLC7A5 transport (Fig S2 curve point)", "setting": "[1]; 0.432099 uM", "value": "95.2 and 94.5"},
      {"measurement": "SLC7A5 transport (Fig S2 curve point)", "setting": "[1]; 1.2963 uM", "value": "99.2 and 103"},
      {"measurement": "SLC7A5 transport (Fig S2 curve point)", "setting": "[1]; 3.88889 uM", "value": "101 and 96.2"},
      {"measurement": "SLC7A5 transport (Fig S2 curve point)", "setting": "[1]; 11.6667 uM", "value": "108 and 105"},
      {"measurement": "SLC7A5 transport (Fig S2 curve point)", "setting": "[1]; 35 uM", "value": "133 and 120"},
      {"measurement": "inhibition of SLC7A5", "setting": "[1]; concentrations up to 35 μM", "value": "did not inhibit"}
    ]}
  ]
}
